One may read the IC50 as the point on the concentration scale where inhibition reaches its midpoint. Lower therefore signals greater potency in that assay.

Among the data in ChEMBL document CHEMBL1144754, “Formation of fluorine-18 labeled diaryl ureas--labeled VEGFR-2/PDGFR dual inhibitors as molecular imaging agents for angiogenesis” (Bioorg Med Chem, 2008) are IC50 and Stability values, retold here.

The target in series [1] is Insulin-like growth factor 1 receptor (Homo sapiens, UniProt P08069). The series can be described thus: Inhibition of IGF1R by ELISA.
Series [2] concerns the target Receptor tyrosine-protein kinase erbB-2 (Homo sapiens, UniProt P04626). Put plainly: Inhibition of Her2 expressed in CSH12 cells by Western blot analysis. In kind it is cell-based.
Series [3] in a line: Inhibition of PDGFR expressed in NIH cells by Western blot analysis. In kind it is cell-based. For orientation: In western blotting, separated proteins are transferred to a membrane and probed.
The target of series [4] is Epidermal growth factor receptor (Homo sapiens, UniProt P00533). The series can be described thus: Inhibition of EGFR expressed in DHER14 cells by Western blot analysis. In kind it is cell-based.
The nature of series [5]: Inhibition of VEGFR expressed in PAE cells by Western blot analysis. In kind it is cell-based.
Another series relates to Plasma. Put plainly: Ex vivo stability in human plasma assessed as radioactivity at 300 uCi upto 120 hrs. In kind it is ADME, cell-free.

Chain of Epidermal growth factor receptor (P00533 whole entry): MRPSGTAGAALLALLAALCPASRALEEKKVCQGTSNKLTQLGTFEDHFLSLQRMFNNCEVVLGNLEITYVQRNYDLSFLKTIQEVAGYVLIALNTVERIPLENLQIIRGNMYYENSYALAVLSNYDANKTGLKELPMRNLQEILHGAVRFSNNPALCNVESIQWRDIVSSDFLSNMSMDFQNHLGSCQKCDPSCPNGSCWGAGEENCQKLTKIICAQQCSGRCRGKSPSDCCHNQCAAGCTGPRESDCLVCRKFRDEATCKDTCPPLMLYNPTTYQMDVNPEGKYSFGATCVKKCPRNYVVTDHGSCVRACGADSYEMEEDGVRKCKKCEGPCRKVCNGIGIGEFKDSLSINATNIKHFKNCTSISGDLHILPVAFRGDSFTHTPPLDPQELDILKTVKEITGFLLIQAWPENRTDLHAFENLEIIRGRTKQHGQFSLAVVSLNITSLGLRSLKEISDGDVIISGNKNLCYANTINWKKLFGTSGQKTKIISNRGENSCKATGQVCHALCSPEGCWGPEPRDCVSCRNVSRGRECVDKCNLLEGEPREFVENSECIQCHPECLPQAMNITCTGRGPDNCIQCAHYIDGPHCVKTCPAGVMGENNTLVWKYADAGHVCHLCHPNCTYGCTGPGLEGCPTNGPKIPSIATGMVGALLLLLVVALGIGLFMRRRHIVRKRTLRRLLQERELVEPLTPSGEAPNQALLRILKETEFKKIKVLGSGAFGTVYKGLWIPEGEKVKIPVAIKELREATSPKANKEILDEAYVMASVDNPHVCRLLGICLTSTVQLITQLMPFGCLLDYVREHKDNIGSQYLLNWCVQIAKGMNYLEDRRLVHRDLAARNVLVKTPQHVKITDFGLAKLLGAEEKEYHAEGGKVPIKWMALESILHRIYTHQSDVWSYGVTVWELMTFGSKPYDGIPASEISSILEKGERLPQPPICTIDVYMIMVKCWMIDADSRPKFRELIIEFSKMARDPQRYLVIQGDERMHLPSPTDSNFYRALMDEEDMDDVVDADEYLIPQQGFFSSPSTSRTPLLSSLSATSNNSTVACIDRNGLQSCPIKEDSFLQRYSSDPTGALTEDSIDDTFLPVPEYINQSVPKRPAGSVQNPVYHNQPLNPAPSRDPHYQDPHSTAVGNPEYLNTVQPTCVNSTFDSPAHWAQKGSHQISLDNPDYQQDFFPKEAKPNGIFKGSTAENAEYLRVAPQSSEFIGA
Chain of Insulin-like growth factor 1 receptor (P08069 31-736 limits assumed): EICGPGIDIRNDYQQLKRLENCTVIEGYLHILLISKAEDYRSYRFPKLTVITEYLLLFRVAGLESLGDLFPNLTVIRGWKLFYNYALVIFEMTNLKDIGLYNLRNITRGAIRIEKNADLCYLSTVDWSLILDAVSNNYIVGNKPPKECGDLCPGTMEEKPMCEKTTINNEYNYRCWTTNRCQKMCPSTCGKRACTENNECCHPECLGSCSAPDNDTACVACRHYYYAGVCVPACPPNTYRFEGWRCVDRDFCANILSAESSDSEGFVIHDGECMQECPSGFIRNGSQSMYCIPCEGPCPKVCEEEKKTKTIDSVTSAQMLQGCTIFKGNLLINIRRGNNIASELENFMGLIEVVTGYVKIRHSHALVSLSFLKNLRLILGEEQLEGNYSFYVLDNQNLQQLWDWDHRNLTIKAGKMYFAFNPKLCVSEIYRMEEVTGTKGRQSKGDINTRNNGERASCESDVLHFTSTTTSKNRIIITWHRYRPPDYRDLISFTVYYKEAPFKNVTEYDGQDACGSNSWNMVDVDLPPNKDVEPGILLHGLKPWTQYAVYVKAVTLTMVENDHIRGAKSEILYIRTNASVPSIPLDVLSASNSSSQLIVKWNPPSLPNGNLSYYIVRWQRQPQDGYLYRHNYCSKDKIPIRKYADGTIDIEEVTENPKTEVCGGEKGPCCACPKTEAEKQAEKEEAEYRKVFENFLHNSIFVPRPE
Chain of Insulin-like growth factor 1 receptor (P08069 741-1367 limits assumed): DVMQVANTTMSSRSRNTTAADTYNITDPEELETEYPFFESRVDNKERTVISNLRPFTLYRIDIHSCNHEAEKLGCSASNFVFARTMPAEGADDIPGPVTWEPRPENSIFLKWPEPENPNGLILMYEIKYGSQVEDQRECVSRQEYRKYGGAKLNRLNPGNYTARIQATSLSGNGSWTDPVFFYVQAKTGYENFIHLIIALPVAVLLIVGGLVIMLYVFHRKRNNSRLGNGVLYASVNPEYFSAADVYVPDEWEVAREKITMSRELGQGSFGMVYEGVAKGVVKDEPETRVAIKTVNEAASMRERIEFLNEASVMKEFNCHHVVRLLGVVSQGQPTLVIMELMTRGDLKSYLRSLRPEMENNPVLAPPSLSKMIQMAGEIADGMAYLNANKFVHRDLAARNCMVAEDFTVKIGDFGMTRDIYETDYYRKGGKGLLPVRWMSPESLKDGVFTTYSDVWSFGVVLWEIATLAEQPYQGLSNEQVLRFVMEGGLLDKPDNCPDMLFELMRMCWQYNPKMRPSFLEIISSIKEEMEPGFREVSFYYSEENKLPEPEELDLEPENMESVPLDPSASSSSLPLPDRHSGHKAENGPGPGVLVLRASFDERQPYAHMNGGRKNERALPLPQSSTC
Chain of Receptor tyrosine-protein kinase erbB-2 (P04626 whole entry): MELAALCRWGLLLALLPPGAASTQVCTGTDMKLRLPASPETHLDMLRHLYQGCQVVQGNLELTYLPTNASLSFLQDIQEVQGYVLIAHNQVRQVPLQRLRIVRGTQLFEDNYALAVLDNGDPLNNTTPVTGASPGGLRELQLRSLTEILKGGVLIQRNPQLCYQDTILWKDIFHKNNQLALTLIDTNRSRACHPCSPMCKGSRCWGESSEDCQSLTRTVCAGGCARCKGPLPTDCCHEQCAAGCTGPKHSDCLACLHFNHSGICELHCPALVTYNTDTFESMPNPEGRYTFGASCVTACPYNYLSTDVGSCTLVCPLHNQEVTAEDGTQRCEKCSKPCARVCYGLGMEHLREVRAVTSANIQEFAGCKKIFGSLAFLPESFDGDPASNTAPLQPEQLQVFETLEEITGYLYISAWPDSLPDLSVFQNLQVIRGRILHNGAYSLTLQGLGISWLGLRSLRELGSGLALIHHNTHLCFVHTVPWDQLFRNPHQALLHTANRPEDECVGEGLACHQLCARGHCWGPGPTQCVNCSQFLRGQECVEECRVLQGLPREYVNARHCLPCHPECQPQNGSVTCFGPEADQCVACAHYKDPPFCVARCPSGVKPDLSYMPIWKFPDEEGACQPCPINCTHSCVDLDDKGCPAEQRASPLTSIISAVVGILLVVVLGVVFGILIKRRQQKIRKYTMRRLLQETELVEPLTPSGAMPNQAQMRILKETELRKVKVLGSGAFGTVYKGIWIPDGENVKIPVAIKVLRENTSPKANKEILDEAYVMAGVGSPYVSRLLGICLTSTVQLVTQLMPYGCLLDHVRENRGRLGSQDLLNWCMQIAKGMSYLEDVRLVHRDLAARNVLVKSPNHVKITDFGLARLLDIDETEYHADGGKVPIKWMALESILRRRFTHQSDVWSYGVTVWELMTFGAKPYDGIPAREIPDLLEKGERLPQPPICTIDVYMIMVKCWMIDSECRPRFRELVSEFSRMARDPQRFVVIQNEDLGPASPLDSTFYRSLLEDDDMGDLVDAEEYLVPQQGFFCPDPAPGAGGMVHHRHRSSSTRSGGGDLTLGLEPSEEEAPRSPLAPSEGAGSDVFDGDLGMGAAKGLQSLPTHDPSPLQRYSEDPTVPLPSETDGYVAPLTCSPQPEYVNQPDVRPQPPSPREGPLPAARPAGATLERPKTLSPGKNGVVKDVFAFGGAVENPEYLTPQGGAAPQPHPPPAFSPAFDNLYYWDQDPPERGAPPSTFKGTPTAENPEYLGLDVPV

On to `COc1cc2nccc(Oc3ccc(NC(=O)Nc4ccc(F)cc4F)cc3F)c2cc1OC`, for which the IC50 in series [1] was above 2000 nM; in series [2], above 500 nM; in series [3], 2 nM; in series [4] it was above 500 nM.
Regarding `COc1cc2nccc(Oc3ccc(NC(=O)Nc4ccc(F)cc4)cc3F)c2cc1OC`, the IC50 in series [1] was above 2000 nM; in series [2], above 500 nM; in series [3] it was 2 nM; in series [5] it was 8 nM; in series [4] it was above 500 nM.
As to `COc1cc2nccc(Oc3ccc(NC(=O)Nc4ccccc4F)cc3F)c2cc1OC`, the IC50 in series [1] is above 2000 nM; in series [2] it was above 500 nM; in series [3], 2 nM; in series [5] it was 4 nM; in series [4], above 500 nM.
On to `COc1cc2nccc(Oc3ccc(NC(=O)Nc4ccc([18F])cc4)cc3F)c2cc1OC`, for which, in the series with Plasma, the Stability entry is “Stable”.
